Source: patent US20020049199A1, “N-linked carbamates and ureas of heterocyclic thioesters” (priority 1996, published 2002)
Where two headings read alike, the source gives them in different places.

Columns and labels:
FKBP = FKBP (Homo sapiens, UniProt P62942); test: Ki test procedure: inhibition of peptidyl-prolyl isomerase (rotamase) activity, chymotrypsin-coupled assay; type: biochemical; details: apparent Ki
Text: Inhibition of the peptidyl-prolyl isomerase (rotamase) activity of the inventive compounds can be evaluated by known methods described in the literature (Harding, et al., Nature, 1989, 341:758-760; Holt et al. J. Am. Chem. Soc., 115:9923-9938). The cis-trans isomerization of an alanine-proline bond in a model substrate, N-succinyl-Ala-Ala-Pro-Phe-p-nitroanilide, is monitored spectrophotometrically in a chymotrypsin-coupled assay, which releases para-nitroanilide from the trans form of the substrate. The inhibition of this reaction caused by the addition of different concentrations of inhibitor is determined, and the data is analyzed as a change in first-order rate constant as a function of inhibitor concentration to yield the apparent Ki values.
In a plastic cuvette are added […] of ice cold assay buffer (25 mM HEPES, pH 7.8, 100 mM NaCl), […] of FKBP (2.5 mM in 10 mM Tris-Cl pH 7.5, 100 mM NaCl, 1 mM dithiothreitol), 25 mL of chymotrypsin (50 mg/ml in 1 mM HCl) and […] of test compound at various concentrations in dimethyl sulfoxide. The reaction is initiated by the addition of 5 mL of substrate (succinyl-Ala-Phe-Pro-Phe-para-nitroanilide, 5 mg/mL in 2.35 mM LiCl in trifluoroethanol).
The absorbance at 390 nm versus time is monitored for 90 seconds using a spectrophotometer and the rate constants are determined from the absorbance versus time data files.
The data for these experiments for representative compounds are presented in Table II under the column “Ki”.

[1] = tested on: chick dorsal root ganglia; test: Chick dorsal root ganglion cultures and neurite outgrowth; type: cell-based; details: neurite outgrowth, 48 hours after drug treatment, Table II (b), ranked potency, read-out: ED50, nMa
Method: Dorsal root ganglia were dissected from chick embryos of ten day gestation. Whole ganglion explants were cultured on thin layer Matrigel-coated 12 well plates with Liebovitz L15 plus high glucose media supplemented with 2 mM glutamine and 10% fetal calf serum, and also containing 10 μM cytosine β-D arabinofuranoside (Ara C) at 37° C. in an environment containing 5% CO2. Twenty-four hours later, the DRGs were treated with various immunophilin ligands. Forty-eight hours after drug treatment, the ganglia were visualized under phase contrast or Hoffman Modulation contrast with a Zeiss Axiovert inverted microscope. Photomicrographs of the explants were made, and neurite outgrowth was quantitated. Neurites longer than the DRG diameter were counted as positive, with total number of neurites quantitated per each experimental condition. Three to four DRGs are cultured per well, and each treatment was performed in duplicate.
The data for these experiments for representative compounds are presented in Table II under the column “ED50”.

FKBP, sequence (P62942 whole entry): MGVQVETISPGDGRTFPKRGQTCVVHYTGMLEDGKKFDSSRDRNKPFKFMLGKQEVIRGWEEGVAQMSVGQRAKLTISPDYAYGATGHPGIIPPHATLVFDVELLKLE

3-Cyclohexylpropyl (2S)-1-[(2,6-diisopropylphenyl)carbamoyl]-2-pyrrolidinecarbothioate [Compound 31]
Ki (FKBP; Table II (a), ranked potency): > 500 nM

3-Phenylpropyl (2S)-1-(1-cyclohexylcarbamoyl)-2-pyrrolidinecarbothioate [Compound 37]
Ki (FKBP; Table II (a), ranked potency, listed as 23): > 500 nM

3-(3,5-Dimethoxyphenyl)propyl (2S)-1-{[(1S,2R)-2-phenyl-cyclopropyl]carbamoyl]-2-pyrrolidinecarbothioate [Compound 34]
Ki (FKBP; Table II (a), ranked potency): > 500 nM

O=C(SCCCc1ccccc1)[C@@H]1CCCN1C(=O)N1CCOCC1 [Compound 43, 3-Phenylpropyl (2S)-1-(morphilinocarbamoyl)-2-pyrrolidinecarbothioate]
Ki (FKBP; Table II (c), numerical): 3740 nM

O=C(SCCCc1cccnc1)[C@@H]1CCCN1C(=S)NC1CCCCC1 [Compound 7, 3-(3-pyridyl)-1-propylmercaptyl 2S-1-[(cyclohexyl)thiocarbamoyl]-pyrrolidine-2-carboxylate]
Ki (FKBP; Table II (a), ranked potency): 51 to 200 nM | EC50 [1]: 1 to 50 nM

3-(2-Fluorophenyl)propyl (2S)-1-(cyclohexylcarbamoyl)-2-pyrrolidinecarbothioate [Compound 23]
Ki (FKBP; Table II (a), ranked potency): 1 to 50 nM | EC50 [1]: 1 to 50 nM

O=C(SCCCc1ccccc1Cl)[C@@H]1CCCN1C(=O)NC1CCCCC1 [Compound 27]
Ki (FKBP; Table II (c), numerical): 1490 nM | EC50 [1]: 1 to 50 nM

3-(4-Methylphenyl)propyl (2S)-1-(1-adamantylcarbamoyl)-2-pyrrolidinecarbothioate [Compound 25]
Ki (FKBP; Table II (c), numerical): 209 nM | EC50 [1]: 1 to 50 nM

3-Phenylpropyl (2S)-1-(dimethylcarbamoyl)-2-pyrrolidinecarbothioate [Compound 41]
Ki (FKBP; Table II (c), numerical): 722 nM

3-(3,4,5-Trimethoxyphenyl)propyl (2S)-1-(benzylcarbamoyl)-2-pyrrolidinecarbothioate [Compound 40]
Ki (FKBP; Table II (c), numerical): 82 nM

3-(2,3,5-Trimethylphenyl)propyl 1-(1-adamantylcarbamoyl)-2-pyrrolidinecarbothioate [Compound 19]
Ki (FKBP; Table II (a), ranked potency): 201 to 500 nM | EC50 [1]: 51 to 200 nM

3-(3,4,5-Trimethoxyphenyl)propyl (2S)-1-(hexylcarbamoyl)-2-pyrrolidinecarbothioate [Compound 39]
Ki (FKBP; Table II (c), numerical): 31 nM

3-(3-Fluorophenyl)propyl (2S)-1-(Cyclohexylcarbamoyl)-2-pyrrolidinecarbothioate [Compound 21]
Ki (FKBP; Table II (a), ranked potency): 1 to 50 nM | EC50 [1]: < 1 nM

3,3-Diphenylpropyl (2S)-1-[(1,1,3,3-tetramethylbutyl)carbamoyl]-2-pyrrolidinecarbothioate [Compound 29]
Ki (FKBP; Table II (c), numerical): 5150 nM | EC50 [1]: 51 to 200 nM

3-(4-Methylphenyl)propyl (2S)-1-(cyclohexylcarbamoyl)-2-pyrrolidinecarbothioate [Compound 24]
Ki (FKBP; Table II (c), numerical): 605 nM | EC50 [1]: 1 to 50 nM

3-(2-Fluorophenyl)propyl (2S)-1-(1-adamantylcarbamoyl)-2-pyrrolidinecarbothioate [Compound 22]
Ki (FKBP; Table II (a), ranked potency): 1 to 50 nM | EC50 [1]: < 1 nM

Phenethyl (2S)-N-(cyclohexylcarbamoyl)-2-pyrrolidinecarbothioate [Compound 18]
Ki (FKBP; Table II (a), ranked potency): 51 to 200 nM | EC50 [1]: 1 to 50 nM

3,3-Diphenylpropyl (2S)-1-[(2,4-dimethoxyphenyl)carbamoyl]-2-pyrrolidinecarbothioate [Compound 33]
Ki (FKBP; Table II (a), ranked potency): > 500 nM

CCC(C)CNC(=O)N1CCC[C@H]1C(=O)SCCCc1cccnc1 (stereo partly drawn) [Compound 1, 3-(3-Pyridyl)-1-propylmercaptyl 2S-1-[(2-methylbutyl)carbamoyl]pyrrolidine-2-carboxylate]
Ki (FKBP; Table II (a), ranked potency): 1 to 50 nM | EC50 ([1]; Gallus gallus): < 1 nM

3-(2,3,5-Trimethylphenyl)propyl 1-(cyclohexylcarbamoyl)-2-pyrrolidinecarbothioate [Compound 20]
Ki (FKBP; Table II (a), ranked potency): 51 to 200 nM | EC50 [1]: 1 to 50 nM

3-(3,5-Dimethoxyphenyl)propyl (2S)-1-{[(1S)-1-(1-naphthyl)ethyl]-carbamoyl}-2-pyrrolidinecarbothioate [Compound 28]
Ki (FKBP; Table II (c), numerical): 8090 nM | EC50 [1]: < 1 nM

3-Phenylpropyl (2S)-1-(1-pyrrolidinylcarbamoyl)-2-pyrrolidinecarbothioate [Compound 42]
Ki (FKBP; Table II (c), numerical): 525 nM

3-(4-Methylphenyl)propyl (2S)-1-(tert-butylcarbamoyl)-2-pyrrolidinecarbothioate [Compound 26]
Ki (FKBP; Table II (c), numerical): 739 nM | EC50 [1]: < 1 nM

O=C(SCCCc1ccccc1)[C@@H]1CCCN1C(=S)NC12CC3CC(CC(C3)C1)C2 [Compound 38]
Ki (FKBP; Table II (c), numerical): 659 nM

3-Cyclohexylpropyl (2S)-1-(hexylcarbamoyl)-2-pyrrolidinecarbothioate [Compound 32]
Ki (FKBP; Table II (a), ranked potency): > 500 nM

3-Phenylpropyl (2S)-1-[(2,4-Dimethoxyphenyl)carbamoyl]-2-pyrrolidinecarbothioate [Compound 35]
Ki (FKBP; Table II (a), ranked potency): > 500 nM | Ki (FKBP; Table II (c), numerical, listed as 21): 795 nM

3-Phenylpropyl (2S)-1-(1-adamantylcarbamoyl)-2-pyrrolidinecarbothioate [Compound 36]
Ki (FKBP; Table II (a), ranked potency): 201 to 500 nM

CCC(C)(C)NC(=O)N1CCC[C@H]1C(=O)SCCCc1cccnc1 [Compound 2]
Ki (FKBP; Table II (a), ranked potency): 51 to 200 nM | EC50 ([1]; Gallus gallus): 1 to 50 nM

3-Phenylpropyl (2S)-1-(1-cyclohexylcarbamoyl)-2-pyrrolidinecarbothioate [Compound 17]
Ki (FKBP; Table II (a), ranked potency, listed as 4): 51 to 200 nM | EC50 [1]: 51 to 200 nM
